Assay results reported in patent US11207308B2, “Pharmaceutical compositions for combination therapy” (PRILENIA NEUROTHERAPEUTICS LTD., priority 2012, dated 2021).
Values joined by “and” are separate entries in the source; they are usually repeats but may differ in a detail not shown here. Equal values may be shown once. Read-outs that look alike come from different tables or passages of the source.

What was measured:
[1] = test system: Male Sprague-Dawley rats; assay: Spontaneous locomotor activity, dose-response in drug-naive rats; format: in vivo, rat
Procedure: (§1) Rats weighed 160-180 g at the time of arrival.
(§2) The treatment groups consisted of Vehicle (saline; NaCl 0.9% v/w) and ACR16 tested at three doses (11; 33 and 100 μmol/kg).
(§3) KR104: Animals were allocated into five different treatment groups, n=4.
(§4) All compounds were injected s.c. four minutes before start of locomotor activity recording at a volume of 5 ml/kg.
During measurements of behavioural activity, a rat is put in a transparent acrylic cage with matted black floor (W×L×H, 41×41×30 cm) which in turn is placed in the activity monitor. […] Two rows are placed along the front and the side of the floor of the cage, at a 90 degree angle, and the third row is placed 10 cm above the floor to measure vertical activity. Photobeam sensors are spaced 2.5 cm apart.

[2] = test system: Male Sprague-Dawley rats; details: for Locomotor activity, % of Tetrabenazine control mean: full hour of recording
Source text: No brain tissue was collected from this experiment. […] Each activity monitor consists of a quadratic metal frame equipped with photobeam sensors. […] Each activity monitor is equipped with three rows of infrared photobeam sensors, each row consisting of 16 sensors. […] Photobeam sensors are spaced 2.5 cm apart. Each activity monitor is fitted in an identical sound and light attenuating box (W×L×H—55×55×45) containing a weak house light and a fan. The computer software is written using object oriented programming (LabVIEW™, National instruments, Austin, Tex., USA). Behavioural data from each activity monitor, representing the position (horizontal center of gravity and vertical activity) of the animal at each time, are recorded at a sampling frequency of 25 Hz and collected using a custom written LABView™ application. The data from each recording session are stored and analyzed with respect to distance travelled. Each behavioural recording session lasts 60 min, starting approximately 4 min after the injection of test compound. The results are presented as counts/60 minutes, counts/45 minutes or counts/15 minutes, in arbitrary length units. Statistical comparisons are carried out using Student's t-test against the control group.

[3] = test system: Arc mRNA; assay: Arc gene expression (Arc mRNA, real-time PCR) in striatum and frontal cortex, dose-response studies; format: in vivo, rat
Procedure: as §1, §4
Reference genes are HPRT and cyclophilin.
Correct PCR products are confirmed by agarose gel electroforesis (2%) PCR products are purified with PCR purification kit from Qiagen (Valencia, Calif., USA). All genes are sequenced at MWG, Germany.
For the data shown in FIG. 6, the reverse transcription and PCR were performed as follows:
Reversed transcription is performed by using a ThermoScript kit (Invitrogen).
cDNA of Arc and two reference genes, hypoxanthine-guanine phosphoribosyltransferase (HPRT) and cyclophilin A, was amplified by real-time PCR in either a triplex reaction (Tetrabenazine studies) or three singleplex reactions (studies with Pridopidine and haloperidol).

[4] = test system: striatal dopamine; assay: Striatal dopamine (DA) tissue level (HPLC/EC), interaction with Tetrabenazine; details: percentage of Tetrabenazine control group mean
[5] = test system: Arc mRNA; assay: Arc gene expression (Arc mRNA, real-time PCR) in striatum and frontal cortex, interaction with Tetrabenazine
[6] = test system: striatal DOPAC; assay: Striatal DOPAC tissue level (HPLC/EC), interaction with Tetrabenazine; details: percentage of Tetrabenazine control group mean
[7] = test system: striatal DOPAC; assay: Striatal DOPAC tissue level (HPLC/EC), dose-response in naive rats; format: in vivo, rat; details: mean ± SEM, percentage of vehicle control group mean
Procedure: as §1, §2, §3, §4
(§5) A digital sonifier (Branson Digital Sonifier 250-D) was used to homogenise tissue from the striatum and limbic region. […] All samples were centrifuged at 10.000 rpm for 10 minutes at +4° C. Cortex tissue was filtered in Munktell filter paper 5.5 cm quality 1 F. Tissue eluates were analysed with respect to tissue concentrations (ng/g tissue) of the monoamine transmitter substances (Norepinephrine (NA), dopamine (DA), 5-hydroxytryptamine (5-HT)) as well as their amine metabolites (normetanephrine (NM), 3-methoxytyramine (3-MT)) and acid metabolites ([…] (DOPAC), 5-hydrocyindoleacetic acid (5-HTAA), homovanillic acid (HVA)) by HPLC separations and electrochemical detection (HPLC/EC). Stock standards (DA, NA, 5-HT, 3-MT, DOPAC, HVA, HIAA, 500 μg/ml) and internal standard (AMDA 500 μg/ml) are prepared once every three months. 5-HT and 5HIAA are dissolved in milliQ water. DA, NA, DOPAC, NM, 3-MT and HVA are dissolved in 0.01 M HCl. 5-HT, 5-HIAA, NM and HVA are kept in fridge; DA, DOPAC, NA and 3-MT are kept in freezer.
(§6) Detection potentials relative to Ag/AgCl reference are 0.45 and 0.60V. […] Detection potentials relative to Ag/AgCl reference are 0.45 and 0.65V.

[8] = test system: striatal dopamine; assay: Striatal dopamine (DA) tissue level (HPLC/EC), dose-response in naive rats; format: in vivo, rat; details: mean ± SEM, percentage of vehicle control group mean
Procedure: as §1, §2, §3, §4, §5, §6

[9] = 33 μmol/kg s.c. together with Tetrabenazine 0.64 mg/kg
[10] = 100 μmol/kg s.c. together with Tetrabenazine 0.64 mg/kg
[11] = 33 μmol/kg s.c. coadministered with Tetrabenazine 0.64 mg/kg
[12] = 100 μmol/kg s.c. coadministered with Tetrabenazine 0.64 mg/kg

CCCN1CCC(c2cccc(S(C)(=O)=O)c2)CC1 [Pridopidine, 4-(3-Methanesulfonyl-phenyl)-1-propyl-piperidine]
Spontaneous locomotor activity, % of the vehicle control group mean ([1]; 33 μmol/kg s.c., full hour of recording): 138%
Spontaneous locomotor activity, period 15-60 minutes post dosing (in words) ([1]; 15-60 minutes post dosing, vs vehicle control): no significant effects were observed
Effect on spontaneous locomotor activity (in words) ([1]; all doses tested, s.c., 60 min recording): no inhibitory effect on spontaneous locomotor activity
Spontaneous locomotor activity, initial 15 min (in words) ([1]; initial 15 min of recording, vs vehicle control): a significant increase (P<0.05) was seen for the 11 μmol/kg Pridopidine dose group
Locomotor activity, % of Tetrabenazine control mean ([2]; 33 μmol/kg s.c. combined with Tetrabenazine 0.64 mg/kg): 135%
Locomotor activity, % of Tetrabenazine control mean ([2]; 100 μmol/kg s.c. combined with Tetrabenazine 0.64 mg/kg): 137%
Locomotor activity in Tetrabenazine treated rats, 15-60 min (in words) ([2]; 15-60 min period, combined with Tetrabenazine 0.64 mg/kg, vs Tetrabenazine control): this reversing effect reached significance for the Pridopidine 100 μmol/kg dose group
Effect on Tetrabenazine induced locomotor activity reduction (in words) ([2]; combined with Tetrabenazine 0.64 mg/kg s.c.): reversed the behavioural inhibition induced by Tetrabenazine
Locomotor activity in Tetrabenazine treated rats, 0-15 min (in words) ([2]; first 15 min, combined with Tetrabenazine 0.64 mg/kg, vs Tetrabenazine control): this reversing effect reached significance for the Pridopidine 100 μmol/kg dose group
Arc mRNA in the frontal cortex, % of the vehicle control group mean ([3]; 33 μmol/kg s.c.): 149%
Arc mRNA in the striatum, % of the control group mean ([3]; 33 μmol/kg s.c.): 168%
Arc mRNA in the frontal cortex, % of the vehicle control group mean ([3]; 100 μmol/kg s.c.): 222%
Arc mRNA in the striatum, % of the control group mean ([3]; 100 μmol/kg s.c.): 253%
DA striatum, interaction with Tetrabenazine [4, 9]: 91 ± 11%
DA striatum, interaction with Tetrabenazine [4, 10]: 98 ± 8%
Frontal cortex Arc mRNA, % of the Tetrabenazine control group mean [5, 11]: 125%
Striatal Arc, % of the Tetrabenazine control group mean [5, 11]: 144%
Frontal cortex Arc mRNA, % of the Tetrabenazine control group mean [5, 12]: 193%
Striatal Arc, % of the Tetrabenazine control group mean [5, 12]: 207%
DOPAC striatum, interaction with Tetrabenazine [6, 9]: 123 ± 8 ^ %
DOPAC striatum, interaction with Tetrabenazine [6, 10]: 155% and 155 ± 4 %
DOPAC striatum, dose-response in naive rats ([7]; 11 μmol/kg s.c.): 117 ± 5 %
DOPAC striatum, dose-response in naive rats ([7]; 33 μmol/kg s.c.): 178 ± 7 %
DOPAC striatum, dose-response in naive rats ([7]; 100 μmol/kg s.c.): 236 ± 17 %
DA striatum, dose-response in naive rats ([8]; 11 μmol/kg s.c.): 104 ± 3%
DA striatum, dose-response in naive rats ([8]; 33 μmol/kg s.c.): 101 ± 3%
DA striatum, dose-response in naive rats ([8]; 100 μmol/kg s.c.): 73 ± 4 %
